# Laboratory results from patent US12202844B2, “MAP4K1 inhibitors” (Blueprint Medicines Corporation, priority 2021, dated 2025).
# pIC50: −log10 of the molar value.
# Target: T1, MAP4K1 (HPK1) (Homo sapiens, UniProt Q92918)
# T1 construct: purchased Invitrogen
# Experiment: Inhibition of MAP4K1 biochemical enzymatic activity (EZReader 2 electrophoretic mobility shift)
# Details: HPK1 (Invitrogen), S6K2tide 1.5 μM, 120 min; ATP 26 μM or 1000 μM (not given)
# Excerpt: MAP4K1 (HPK1) and relevant off-target enzymatic activity was monitored using the Perkin Elmer electrophoretic mobility shift technology platform—the EZReader 2. […] Within the linear, steady-state phase of the kinase enzymatic reaction, the mixed pool of phosphorylated (product) and non-phosphorylated (substrate) peptides was passed through the microfluidic system of the PerkinElmer EZ Reader 2, under an applied electric potential difference. The presence of the phosphate group on the product peptide provided a difference in mass and charge between that of the substrate peptide, resulting in a separation of the substrate and product pools in the sample (Perrin et al. 2010). As the product and substrate peptide mixture passes the lasers within the instrument, these pools are detected (λex=488 nm, λem=568 nm) and resolved as separate peaks. The ratio between these peaks reflects the activity of the compound at that concentration, in that well, under those conditions.
# Inhibitors were dissolved in 100% DMSO at a stock concentration of 10 mM. A 100×, 10-point, 4-fold serial dilution of each inhibitor was created in 100% DMSO either manually or on a Hamilton STAR liquid handler, starting at a relevant concentration, usually 1 mM. A volume of 0.130 μL of each concentration was transferred to the relevant wells of a 384-well plate (Greiner 781 201) in duplicate using a TTPLabtech Mosquito nano-litre dispenser. Using a Multidrop Combi, the remaining constituents of the kinase reaction were added to the 130 nL of dosed compound as follows (see table below for final reaction details):
# Enzyme activity assays at the ^APPKM for ATP or 1 mM ATP: In each well of a 384-well plate, 0.1-15 nM of untreated enzyme was incubated in a total of 13 μL of buffer (100 mM HEPES pH 7.5, 0.015% Brij 35, 10 mM MgCl2, 1 mM DTT) with 1.5 μM fluorescent peptid and 20-1000 μM ATP, at 25° C., for 60-180 minutes in the presence or absence of a dosed concentration series of compound (1% DMSO final concentration). The kinase reactions were stopped by the addition of 70 μl of Stop buffer (100 mM HEPES pH 7.5, 0.015% Brij 35, 35 mM EDTA and 0.2% of Coating Reagent 3 (Caliper Lifesciences)). The plates were read on a Caliper EZReader 2 as described above.
# T1 sequence (Q92918 whole entry): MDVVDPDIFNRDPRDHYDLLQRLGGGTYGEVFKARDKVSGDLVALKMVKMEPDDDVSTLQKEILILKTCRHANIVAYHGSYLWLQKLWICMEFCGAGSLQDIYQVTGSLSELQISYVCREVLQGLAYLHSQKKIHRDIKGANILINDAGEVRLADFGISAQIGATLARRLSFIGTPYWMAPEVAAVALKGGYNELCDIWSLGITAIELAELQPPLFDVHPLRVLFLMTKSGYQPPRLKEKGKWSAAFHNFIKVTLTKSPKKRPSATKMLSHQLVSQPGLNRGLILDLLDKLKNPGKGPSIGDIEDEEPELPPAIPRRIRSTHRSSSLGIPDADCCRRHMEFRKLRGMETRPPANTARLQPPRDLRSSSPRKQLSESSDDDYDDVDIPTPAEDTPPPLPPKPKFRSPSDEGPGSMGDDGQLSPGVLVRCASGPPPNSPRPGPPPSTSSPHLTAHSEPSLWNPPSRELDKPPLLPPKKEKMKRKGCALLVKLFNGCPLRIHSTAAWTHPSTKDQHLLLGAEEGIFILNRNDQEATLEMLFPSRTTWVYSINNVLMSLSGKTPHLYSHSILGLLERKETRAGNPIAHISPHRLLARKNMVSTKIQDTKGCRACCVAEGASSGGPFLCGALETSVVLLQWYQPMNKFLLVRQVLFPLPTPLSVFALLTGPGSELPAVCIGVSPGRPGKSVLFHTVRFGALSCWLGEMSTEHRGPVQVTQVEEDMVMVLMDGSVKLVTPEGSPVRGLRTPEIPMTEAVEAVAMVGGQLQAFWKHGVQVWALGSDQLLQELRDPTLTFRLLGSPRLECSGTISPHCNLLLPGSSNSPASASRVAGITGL
row,Compound,pIC50
1,"CC[C@@](C)(N)c1cnc(O[C@@H](C)CCS(=O)(=O)C2CC2)c2cnc(Nc3ccc4c(n3)[C@@H](C)[C@H](C)OC4=O)cc12 (single isomer, unassigned) [Compound 106]",9.66
2,"CC[C@@](C)(N)c1cnc(OCCCS(C)(=O)=O)c2cnc(Nc3ccc4c(n3)C(C)(C)[C@H](C)OC4=O)cc12 (single isomer, unassigned) [Compound 56]",9.68
3,CC[C@@](C)(N)c1cnc(OCCCS(C)(=O)=O)c2cnc(Nc3ccc4c(n3)C3(CC3)C(C)(C)OC4=O)cc12 [Compound 44],9.72
4,C[C@@H]1c2nc(Nc3cc4c(C(C)(C)N)cnc(O[C@H]5C[C@H](S(=O)(=O)N(C)C)C5)c4cn3)ccc2C(=O)OC1(C)C [Compound 119],9.66
5,CC[C@@](C)(N)c1cnc(OCCCS(C)(=O)=O)c2cnc(Nc3ccc4c(n3)C(C)(C)COC4=O)cc12 [Compound 22],9.52
6,"CC[C@@](C)(N)c1cnc(O[C@@H](C)CC(C)(C)S(C)(=O)=O)c2cnc(Nc3ccc4c(n3)C(C)(C)[C@H](C)OC4=O)cc12 (single isomer, unassigned) [Compound 192]",9.03
7,"C[C@@H]1c2nc(Nc3cc4c(C(C)(C)N)cnc(O[C@@H](CCS(C)(=O)=O)C(F)(F)F)c4cn3)ccc2C(=O)OC1(C)C (single isomer, unassigned) [Compound 172]",8.73
8,"C[C@H](C[C@@H](C)S(C)(=O)=O)Oc1ncc([C@@](C)(N)C2CC2)c2cc(Nc3ccc4c(n3)[C@@H](C)[C@H](C)OC4=O)ncc12 (single isomer, unassigned) [Compound 109]",9.82
9,"CCC[C@@](C)(N)c1cnc(O[C@H](C)C[C@@H](C)S(C)(=O)=O)c2cnc(Nc3ccc4c(n3)CC(C)(C)OC4=O)cc12 (single isomer, unassigned) [Compound 124]",9.59
10,"COC[C@@](C)(N)c1cnc(O[C@H](C)C[C@@H](C)S(C)(=O)=O)c2cnc(Nc3ccc4c(n3)C3(CC3)[C@H](C)OC4=O)cc12 (single isomer, unassigned) [Compound 165]",8.94
11,CC[C@@](C)(N)c1cnc(O[C@H]2C[C@H](CS(C)(=O)=O)C2)c2cnc(Nc3ccc4c(n3)[C@@H](C)[C@H](C)OC4=O)cc12 [Compound 72],10.00
12,"CC[C@@](C)(N)c1cnc(O[C@H](C)CC(C)(C)[S@@](C)(=N)=O)c2cnc(Nc3ccc4c(n3)C(C)(C)[C@@H](C)OC4=O)cc12 (single isomer, unassigned) [Compound 188]",9.02
13,CC[C@@](C)(N)c1cnc(O[C@H]2C[C@@H](CS(C)(=O)=O)C2)c2cnc(Nc3ccc4c(n3)[C@@H](C)[C@H](C)OC4=O)cc12 [Compound 73],9.62
14,"CC[C@@](C)(N)c1cnc(O[C@H]2C[C@@H](S(C)(=O)=O)C2)c2cnc(Nc3ccc4c(n3)C3(CC3)[C@@H](C)OC4=O)cc12 (single isomer, unassigned) [Compound 58]",10.00
15,"CC[C@@](C)(N)c1cnc(O[C@@H](C)CC(C)(C)S(C)(=O)=O)c2cnc(Nc3ccc4c(n3)[C@@H](C)[C@H](C)OC4=O)cc12 (single isomer, unassigned) [Compound 184]",9.08
16,COC[C@@](C)(N)c1cnc(OCCCS(C)(=O)=O)c2cnc(Nc3ccc4c(n3)[C@@H](C)[C@H](C)OC4=O)cc12 [Compound 57],9.28
17,"C[C@@H]1OC(=O)c2ccc(Nc3cc4c(C(C)(C)N)cnc(O[C@@H](C)C[C@@H]5CCCS5(=O)=O)c4cn3)nc2[C@H]1C (single isomer, unassigned) [Compound 154]",9.21
18,"CC[C@@](C)(N)c1cnc(O[C@@H](C)CCS(=O)(=O)C2CC2)c2cnc(Nc3ccc4c(n3)[C@@H](C)[C@H](C)OC4=O)cc12 (single isomer, unassigned) [Compound 107]",9.59
19,"C[C@@H]1OC(=O)c2ccc(Nc3cc4c(C(C)(C)N)cnc(O[C@@H](C)C[C@@H]5CCCS5(=O)=O)c4cn3)nc2[C@H]1C (single isomer, unassigned) [Compound 156]",8.62
